For data set [1], the system named is uric acid. The settings on record: cited from earlier work.
The nature of data set [2]: Hygroscopicity test according to Chinese Pharmacopoeia. In kind it is physicochemical. The settings on record: for Weight gain due to hygroscopicity: 25±1° C., 80%+2% relative humidity; for Hygroscopicity, summary in words: summary of hygroscopicity test. The protocol: Test Example 3: Hygroscopicity Test (According to Chinese Pharmacopoeia, Guidelines for Drug
Hygroscopicity Testing, at 25±1° C., and 80%+2% Relative Humidity)
An appropriate amount of the sample from the examples was taken for the hygroscopicity test.

Data set [3] in a line: Photostability test (influencing factor stability test). Format: physicochemical. The following applies: illuminance 5000 Lx ± 500 Lx. The method, then: (§1) Test samples: crystal form I and crystal form II of the compound of formula (1) were prepared according to the above examples.
(§2) Test conditions for investigating the influencing factors:
Photostablity test: Crystal form I and crystal form II of the compound of formula (1) were laid on a dry and clean watch glass, and kept at an illuminance of 5000 Lx±500 Lx in a light box for 10 days. Samples were taken respectively on Day 5 and Day 10. The purity and the related substance content of the compound of formula (1) were determined and compared with those of the sample taken on Day 0.

A short description of data set [4]: High humidity test (influencing factor stability test). Format: physicochemical. The settings on record: for Change of purities/related substance contents: under high humidity and light exposure (summary of Table 1). The protocol: as §1, §2
High humidity test: Crystal form I and crystal form II of the compound of formula (1) were laid on a dry and clean watch glass, and kept at 40° C.±2° C., and 75% RH±5% for 10 days. Samples were taken respectively on Day 5 and Day 10. The purity and the related substance content of the compound of formula (1) were determined and compared with those of the sample taken on Day 0.

Data set [5] can be described thus: Thermodynamic stability of crystal forms. In kind it is physicochemical. The protocol: (§3) The dehydration risk of the monohydrate crystal form was also evaluated by using VT-XRPD (variable temperature X-ray powder diffraction) in the present invention. […] The stability of crystal forms I and IV in the solid-state was also studied in the present invention.
A short description of data set [6]: In vivo PK after oral administration in SD rats. The following applies: for Half-life (t1/2), comparison in words: SD rats, PO, summary of Table 2; for t1/2: male SD rats, PO 2 mg/kg, plasma, mean ± SD, n = 3. The protocol: Test samples: the compound of represented by formula (1), and crystal forms I and II of the compound of formula (1) were prepared according to Examples 1-3;
The tris (i.e. tris(hydroxymethyl)aminomethane) salt crystal form of the compound 8-chloro-3-pentyl-3,7-dihydro-1H-purine-2,6-dione was prepared with reference to WO2010/068581A1.
Oral administration (PO) of four samples:
The concentrations of the test substances were output using Analyst 1.6.2 from AB Sciex. Parameters such as mean, standard deviation, and variation coefficient were calculated using Microsoft Excel (those directly output by Analyst 1.6.2 were not recalculated). PK parameters were calculated using Pharsight Phoenix 6.2 software (NCA model).

For data set [7] the following is noted: compared with the free acid; cited from earlier work.
For data set [8] the following is noted: cited from earlier work.
Data set [9] in a line: Solid-state stability under accelerated conditions, open container. In kind it is physicochemical. The settings on record: one month. The protocol:
as §3

Data set [10] is described as follows: Kinetic stability in the solid state (long-term storage). In kind it is physicochemical. The settings on record: stored at 10° C.-30° C. in double-sealed aluminum packaging and plastic self-sealing bags for more than 6 years. The protocol:
as §3

The nature of data set [11]: Stability of crystal form I in the formulation. In kind it is physicochemical. The protocol:
as §3

Data set [12] in a line: Dehydration risk of monohydrate crystal form by VT-XRPD. Format: physicochemical. The method, then: as §3
Data set [13] in a line: Transformation of crystal form on standing under ambient conditions. Format: physicochemical. The following applies: 25-30° C., 70-85% RH, about 10 hours.
[14] abbreviates: 40° C. ± 2° C./75% ± 5% RH, Day 5.
Where [15] appears, read: 40° C. ± 2° C./75% ± 5% RH, Day 10.
Where [16] appears, read: Day 0, sample before exposure (baseline for both tests).

Turning to `CCCCCn1c(=O)[nH]c(=O)c2[nH]c(Cl)nc21` [Formula (1), 8-chloro-3-pentyl-3,7-dihydro-1H-purine-2,6-dione], the Uric acid-lowering effect entry in data set [1] is “good uric acid-lowering effect”.

As to `CCCCCn1c(=O)[nH]c(=O)c2[nH]c(Cl)nc21` [Crystal form II, 8-chloro-3-pentyl-3,7-dihydro-1H-purine-2,6-dione], the “Weight gain due to hygroscopicity” value in [2] is less than 0.2%. In addition, the “Hygroscopicity, summary in words” value in data set [2] is on record as “extremely low hygroscopicity”. In addition, the Purity in data set [3] (Day 5), in [3] (Day 10), in data set [4] (setting [14]), in data set [4] (setting [15]) and in data set [4] (setting [16]) was 99.7% in each case. For the same molecule, the Related substance in [3] (Day 5) is 0.31%; in [3] (Day 10) it was 0.32%; in data set [4] (setting [14]), 0.31%; in [4] (setting [15]), 0.32%; in data set [4] (setting [16]), 0.32%. Further, the “Change of purities/related substance contents” value in data set [4] is “changed very little”. Also, in [5], the “Thermodynamic stability for pharmaceutical applications” value (from here on “Thermodynamic stability”) is “advantageous”. Further, the “Half-life (t1/2), comparison in words” value in data set [6] is listed as “longer half-lifes”. Moreover, in data set [6] (2 mg/kg), the t1/2 was 4.26 ± 0.61 h.

Take `CCCCCn1c(=O)[nH]c(=O)c2[nH]c(Cl)nc21` [Crystal form III, 8-chloro-3-pentyl-3,7-dihydro-1H-purine-2,6-dione]: the “Thermodynamic stability” value in data set [5] is “suboptimal”.

Turning to `CCCCCn1c(=O)[nH]c(=O)c2[nH]c(Cl)nc21` [Solid product of Example 1, 8-chloro-3-pentyl-3,7-dihydro-1H-purine-2,6-dione monohydrate, reference compound], the t1/2 in [6] (monohydrate, 2 mg/kg) worked out at 2.32 ± 0.09 h.

Consider `CCCCCn1c(=O)[nH]c(=O)c2[nH]c(Cl)nc21.NC(CO)(CO)CO` [tris salt crystal form, 8-chloro-3-pentyl-3,7-dihydro-1H-purine-2,6-dione tris(hydroxymethyl)aminomethane salt], for which, in data set [7], the Cmax result was “increased Cmax” and the Tmax result is on record as “decreased Tmax”. Also, the “Solubility compared with the free acid” value in data set [8] is “higher solubility”. The molecule further had a t1/2 in [6] of 2.38 ± 0.17 h.

For `CCCCCn1c(=O)[nH]c(=O)c2[nH]c(Cl)nc21` [Crystal form IV, 8-chloro-3-pentyl-3,7-dihydro-1H-purine-2,6-dione], the “Crystal form transformation after storage” value in data set [9] (25° C./92.5% RH) and in data set [9] (40° C./75% RH) was “transformed into crystal form I” in each case.

On to `CCCCCn1c(=O)[nH]c(=O)c2[nH]c(Cl)nc21` [Crystal form I, 8-chloro-3-pentyl-3,7-dihydro-1H-purine-2,6-dione], for which the “Crystal form after long-term storage” value in data set [10] was “remained unchanged”. In addition, the “Weight gain due to hygroscopicity” value in [2] was less than 0.2%. Further, the “Hygroscopicity, summary in words” value in data set [2] is listed as “extremely low hygroscopicity”. Moreover, the “Content of crystal form III in the formulation” value in [11] (formulation stored at 25° C./60% RH for 9 months) and in [11] (formulation stored at 40° C./75% RH for 6 months) was “below LOD” throughout. Besides, the Purity in data set [3] (Day 5) was found to be 99.6%; in [3] (Day 10) it was 99.5%; in data set [4] (setting [14]) it was 99.5%; in data set [4] (setting [15]), 99.6%; in data set [4] (setting [16]) it was 99.6%. Also, the Related substance is on record as 0.44% in [3] (Day 5); 0.46% in data set [3] (Day 10); 0.46% in data set [4] (setting [14]); 0.42% in data set [4] (setting [15]); 0.45% in data set [4] (setting [16]). For the same molecule, the “Change of purities/related substance contents” value in data set [4] is reported as “changed very little”. Further, in data set [5], the “Thermodynamic stability” value is recorded as “advantageous”. Besides, in data set [12], the Dehydration risk entry is “very low”. The “Half-life (t1/2), comparison in words” value in [6] is given as “longer half-lifes”. This molecule yielded a t1/2 in data set [6] (2 mg/kg) of 5.28 ± 1.10 h. Further, the “Crystal form transformation after storage” value in data set [9] (25° C./92.5% RH) and in [9] (40° C./75% RH) was “did not transform” in each case.

As for `CCCCCn1c(=O)[nH]c(=O)c2[nH]c(Cl)nc21` [Crystal form V, 8-chloro-3-pentyl-3,7-dihydro-1H-purine-2,6-dione], in [13], the “Crystal form transformation under ambient conditions” value is reported as “transform into crystal form IV”.

These data come from patent publication US20260035370A1, “CRYSTAL FORM OF 8-CHLORO-3-PENTYL-3,7-DIHYDRO-1H-PURIN-2,6-DIONE COMPOUND AND PREPARATION METHOD THEREFOR” (Shanton Pharma Pte. Ltd., priority 2023, published 2026).
